The supplement of paper PMC9244889
± gives the standard deviation of the averaged measurements.

Legend:
[1] = system: Vero E6; experiment: inhibition of SARS-CoV-2-induced cytopathic effect relative to cell and virus controls; higher = more antiviral protection; details: 72 h, virus: SARS-CoV-2 propagated original strain, 100 TCID50, assay detail: infected
Protocol: (§1)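 Vero E6 C1008 cells (2e4 cells/well) were treated with a 3-fold dilution series of each drug (monotherapy), with or without live SARS-CoV-2 (propagated original strain, 100 TCID50). After 72 h at 37 °C, viability was read with Viral ToxGlo (ATP luminescence). %Inhibition of virus-induced CPE and %Cytotoxicity (uninfected) were normalised to cell and virus controls. Triplicates. The paper excluded %Inhibition points with >25% cytotoxicity from its curve fits.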

[2] = system: Vero E6; experiment: cytotoxicity relative to untreated cell control; higher = more toxic; details: 72 h, assay detail: uninfected
Protocol: as §1

Structure (SMILES)	inhibition of SARS-CoV-2-induced cytopathic effect ([1]; 56.45 pM) [%]	inhibition of SARS-CoV-2-induced cytopathic effect ([1]; 0.000169351 µM) [%]	inhibition of SARS-CoV-2-induced cytopathic effect ([1]; 0.000508053 µM) [%]	inhibition of SARS-CoV-2-induced cytopathic effect ([1]; 0.00152416 µM) [%]	inhibition of SARS-CoV-2-induced cytopathic effect ([1]; 0.00457247 µM) [%]	inhibition of SARS-CoV-2-induced cytopathic effect ([1]; 0.0137174 µM) [%]	inhibition of SARS-CoV-2-induced cytopathic effect ([1]; 0.0411523 µM) [%]	inhibition of SARS-CoV-2-induced cytopathic effect ([1]; 0.123457 µM) [%]	inhibition of SARS-CoV-2-induced cytopathic effect ([1]; 0.37037 µM) [%]	inhibition of SARS-CoV-2-induced cytopathic effect ([1]; 1.11111 µM) [%]	inhibition of SARS-CoV-2-induced cytopathic effect ([1]; 3.33333 µM) [%]	inhibition of SARS-CoV-2-induced cytopathic effect ([1]; 10 µM) [%]	cytotoxicity ([2]; 56.45 pM) [%]	cytotoxicity ([2]; 0.000169351 µM) [%]	cytotoxicity ([2]; 0.000508053 µM) [%]	cytotoxicity ([2]; 0.00152416 µM) [%]	cytotoxicity ([2]; 0.00457247 µM) [%]	cytotoxicity ([2]; 0.0137174 µM) [%]	cytotoxicity ([2]; 0.0411523 µM) [%]	cytotoxicity ([2]; 0.123457 µM) [%]	cytotoxicity ([2]; 0.37037 µM) [%]	cytotoxicity ([2]; 1.11111 µM) [%]	cytotoxicity ([2]; 3.33333 µM) [%]	cytotoxicity ([2]; 10 µM) [%]
O=c1nc(NO)ccn1[C@@H]1O[C@H](CO)[C@@H](O)[C@H]1O [EIDD-1931]	-1.26 ± 1.9	0.00675 ± 3	0.0533 ± 0.39	0.601 ± 1.1	-0.506 ± 1.3	-0.261 ± 0.77	-0.787 ± 1.6	3.32 ± 2.9	13.2 ± 0.86	57.5 ± 4.3	78.3 ± 1.5	70.6 ± 1.6	-9.83 ± 7.4	-16.6 ± 5.9	-20 ± 1.8	-19.1 ± 1.4	-16.2 ± 4	-14.9 ± 3.3	-10.5 ± 15	-12.1 ± 5.8	-7.1 ± 3.5	-15.6 ± 2.5	7.25 ± 3.6	25.9 ± 2.2
CCc1c2c(nc3ccc(O)cc13)-c1cc3c(c(=O)n1C2)COC(=O)[C@]3(O)CC [SN-38]	-1.53 ± 1.2	-0.815 ± 1.2	-0.975 ± 0.93	-2.92 ± 1.5	-3.61 ± 0.72	-6.1 ± 1.1	-10.4 ± 1.1	-10.9 ± 1.3	-11.1 ± 0.12	-10.4 ± 0.52	-14.8 ± 0.46	-17.4 ± 0.36	-12.2 ± 4	-12.8 ± 1.2	-9.63 ± 4.5	-8.98 ± 5.2	-9.11 ± 3.9	-9.99 ± 3.2	5.49 ± 1.8	1.29 ± 5.6	1.32 ± 5.8	6.01 ± 4.5	43.6 ± 2.1	82.6 ± 1.2
CCS(=O)(=O)N1CC(CC#N)(n2cc(-c3ncnc4[nH]ccc34)cn2)C1 [baricitinib]	0.443 ± 1.1	-0.597 ± 0.76	1.73 ± 0.91	0.473 ± 0.57	0.0832 ± 0.89	-0.169 ± 1.2	-0.529 ± 0.88	-0.177 ± 1.5	0.117 ± 0.97	-1.55 ± 1.5	-2.06 ± 0.42	-1.06 ± 0.97	-23.8 ± 2.7	-24.9 ± 6.2	-20.2 ± 4.5	-17.5 ± 3.1	-20.6 ± 5.6	-15.3 ± 5.8	-17.8 ± 3.3	-13.4 ± 2.3	-9.61 ± 0.59	-14 ± 4.5	-9.73 ± 1.8	-10.3 ± 3.5
